Reference: ChEMBL document CHEMBL5380860, “Design, Synthesis, and Antitumor Activity of Potent and Selective EGFR L858R/T790M Inhibitors and Identification of a Combination Therapy to Overcome Acquired Resistance in Models of Non-small-cell Lung Cancer” (J Med Chem, 2023)
pIC50: −log10 of the molar value.

Tests used:
NCI-H1975 = assay: Antiproliferative activity against human NCI-H1975 cells harboring EGFR L858R/T790M mutant assessed as reduction in cell viability measured after 72 hrs by MTT assay; assay type: functional, cell-based; settings: NCI-H1975, 72 h
[1] = Cytotoxicity against human A-431 cells harboring wild type EGFR assessed as reduction in cell viability measured after 72 hrs by MTT assay; assay type: toxicity, cell-based
[2] = Cytotoxicity against human A549 cells harboring wild type EGFR assessed as reduction in cell viability measured after 72 hrs by MTT assay; assay type: toxicity, cell-based
[3] = Selectivity ratio of IC50 for cytotoxicity against human A-431 cells harboring wild type EGFR to IC50 for antiproliferative activity against human NCI-H1975 cells harboring EGFR L858R/T790M mutant; assay type: toxicity, cell-based; settings: read-out: Ratio IC50
HCC827 = assay: Antiproliferative activity against human HCC827 cells harboring EGFR exon del 19 mutant assessed as reduction in cell viability measured after 72 hrs by MTT assay; assay type: functional, cell-based; settings: HCC827, 72 h
[4] = Selectivity ratio of IC50 for cytotoxicity against human A549 cells harboring wild type EGFR to IC50 for antiproliferative activity against human NCI-H1975 cells harboring EGFR L858R/T790M mutant; assay type: toxicity, cell-based; settings: read-out: Ratio IC50
[5] = target: Epidermal growth factor receptor (Homo sapiens, UniProt P00533, L858R/T790M); assay: Inhibition of human partial length EGFR (R669 to V1011 residues) L858R/T790M mutant expressed in mammalian expression system by KINOMEscan analysis
[6] = target: Epidermal growth factor receptor (Homo sapiens, UniProt P00533); assay: Inhibition of human wild type partial length EGFR (R669 to V1011 residues) expressed in bacterial expression system by KINOMEscan analysis; assay type: toxicity
Sequence of Epidermal growth factor receptor (Homo sapiens, UniProt P00533) (P00533 whole entry, the tested form may be a part): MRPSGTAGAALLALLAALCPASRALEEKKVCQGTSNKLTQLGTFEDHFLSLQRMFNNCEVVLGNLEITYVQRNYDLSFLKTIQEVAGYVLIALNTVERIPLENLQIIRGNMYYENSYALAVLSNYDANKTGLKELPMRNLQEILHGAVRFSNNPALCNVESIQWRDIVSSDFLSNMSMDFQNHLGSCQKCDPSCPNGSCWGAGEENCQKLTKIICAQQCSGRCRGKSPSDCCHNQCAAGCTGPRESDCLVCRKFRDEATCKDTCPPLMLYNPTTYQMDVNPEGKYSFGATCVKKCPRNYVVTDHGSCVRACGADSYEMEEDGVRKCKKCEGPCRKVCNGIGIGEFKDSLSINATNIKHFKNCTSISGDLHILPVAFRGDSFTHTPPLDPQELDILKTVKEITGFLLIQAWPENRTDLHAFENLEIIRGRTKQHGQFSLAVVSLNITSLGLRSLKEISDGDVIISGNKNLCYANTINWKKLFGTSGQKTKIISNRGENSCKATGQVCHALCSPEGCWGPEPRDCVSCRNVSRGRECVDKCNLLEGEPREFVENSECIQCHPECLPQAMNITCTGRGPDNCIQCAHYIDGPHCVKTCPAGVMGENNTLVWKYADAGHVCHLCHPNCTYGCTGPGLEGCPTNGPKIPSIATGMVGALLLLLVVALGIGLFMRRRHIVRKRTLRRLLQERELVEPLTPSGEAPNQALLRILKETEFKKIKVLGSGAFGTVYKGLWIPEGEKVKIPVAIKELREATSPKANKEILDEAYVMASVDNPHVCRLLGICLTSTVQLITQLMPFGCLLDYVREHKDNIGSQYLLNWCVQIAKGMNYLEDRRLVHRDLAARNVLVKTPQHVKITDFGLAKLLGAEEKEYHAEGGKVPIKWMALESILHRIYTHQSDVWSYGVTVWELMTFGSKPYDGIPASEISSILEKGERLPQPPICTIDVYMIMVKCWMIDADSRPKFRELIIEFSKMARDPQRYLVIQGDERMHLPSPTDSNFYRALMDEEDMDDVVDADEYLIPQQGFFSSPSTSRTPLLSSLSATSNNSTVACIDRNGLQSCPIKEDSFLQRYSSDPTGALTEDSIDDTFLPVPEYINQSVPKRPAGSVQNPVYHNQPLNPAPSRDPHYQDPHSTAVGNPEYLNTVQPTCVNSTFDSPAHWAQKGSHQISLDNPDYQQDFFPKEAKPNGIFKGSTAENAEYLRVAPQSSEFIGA

Sequence of Epidermal growth factor receptor (Homo sapiens, UniProt P00533, L858R/T790M) (P00533 25-1210 T790M/L858R limits assumed): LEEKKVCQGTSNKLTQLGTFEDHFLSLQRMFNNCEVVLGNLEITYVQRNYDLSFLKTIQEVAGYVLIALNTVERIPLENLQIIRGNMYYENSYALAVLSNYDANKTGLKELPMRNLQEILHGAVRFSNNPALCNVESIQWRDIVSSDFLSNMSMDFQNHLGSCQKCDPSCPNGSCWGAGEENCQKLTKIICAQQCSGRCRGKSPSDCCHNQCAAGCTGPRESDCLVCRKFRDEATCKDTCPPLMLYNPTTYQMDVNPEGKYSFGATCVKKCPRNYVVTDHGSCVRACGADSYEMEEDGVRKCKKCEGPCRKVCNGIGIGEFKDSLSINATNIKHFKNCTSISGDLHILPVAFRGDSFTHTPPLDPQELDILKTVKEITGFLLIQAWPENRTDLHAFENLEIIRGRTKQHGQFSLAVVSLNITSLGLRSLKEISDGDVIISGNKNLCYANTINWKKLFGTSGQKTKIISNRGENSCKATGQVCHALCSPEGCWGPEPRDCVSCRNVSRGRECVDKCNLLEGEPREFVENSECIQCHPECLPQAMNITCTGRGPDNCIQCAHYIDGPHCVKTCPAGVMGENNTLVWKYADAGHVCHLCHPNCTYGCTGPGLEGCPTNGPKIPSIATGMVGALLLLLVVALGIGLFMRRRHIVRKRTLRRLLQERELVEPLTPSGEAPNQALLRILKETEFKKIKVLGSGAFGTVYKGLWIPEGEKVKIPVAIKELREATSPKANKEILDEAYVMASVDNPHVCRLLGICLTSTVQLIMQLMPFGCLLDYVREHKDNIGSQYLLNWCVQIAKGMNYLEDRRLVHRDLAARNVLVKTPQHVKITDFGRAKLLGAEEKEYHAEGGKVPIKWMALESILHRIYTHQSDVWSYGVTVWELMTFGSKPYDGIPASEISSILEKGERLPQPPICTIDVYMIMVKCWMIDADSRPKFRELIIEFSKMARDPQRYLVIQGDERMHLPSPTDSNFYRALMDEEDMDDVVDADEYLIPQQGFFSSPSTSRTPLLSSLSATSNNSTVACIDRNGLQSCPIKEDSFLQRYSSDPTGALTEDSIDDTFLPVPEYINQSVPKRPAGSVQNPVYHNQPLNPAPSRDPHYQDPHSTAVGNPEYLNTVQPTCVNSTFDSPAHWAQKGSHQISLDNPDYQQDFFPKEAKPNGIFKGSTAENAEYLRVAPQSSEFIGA

| SMILES | pIC50 (NCI-H1975) | IC50 at 72 h [1] [nM] | IC50 at 72 h [2] [nM] | selectivity ratio [3] | pIC50 (HCC827) | selectivity ratio [4] | pIC50 [5] | pIC50 [6] |
| --- | --- | --- | --- | --- | --- | --- | --- | --- |
| C=CC(=O)Nc1cccc(Nc2nc(Nc3ccc(N4CCN(CC)CC4)cc3)nc3ccc(Cl)cc23)c1 | 7.68 | 735 | 672 | 35 | 7.92 | 32 |  |  |
| C=CC(=O)Nc1cccc(Nc2nc(Nc3ccc(N4CCN(C)CC4)cc3)nc3ccc(Cl)cc23)c1 | 7.77 | 1240 | 816 | 73 | 7.89 | 48 |  |  |
| C=CC(=O)Nc1cccc(Nc2nc(Nc3ccc(N4CCN(CC)CC4)cc3)nc3ccc(F)cc23)c1 | 7.60 | 1550 | 1520 | 62 | 7.96 | 60 |  |  |
| C=CC(=O)Nc1cccc(Nc2nc(Nc3ccc(N(C)C)cc3)nc3ccc(Cl)cc23)c1 | 5.64 |  | > 10000 |  |  |  | 5.74 | < 5.00 |
| C=CC(=O)Nc1cccc(Nc2nc(Nc3ccc(N(C)CCN(C)C)cc3OC)nc3ccc(F)cc23)c1 | 5.06 | > 10000 | > 10000 |  | 5.18 |  |  |  |
